Outcome data for 114 compounds are collected here from PubChem BioAssay AID2202554 (NIEHS Division of Translational Toxicology (DTT)).

In this data set the test system is S. typhimurium/E. coli reverse mutation, colony counts. Briefly: Bacterial reverse mutation test (aka Ames test) summary data. The gist of the method: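 S. typhimurium his⁻ strains (TA97–TA1538) and E. coli WP2 uvrA pKM101 trp⁻, dosed over a range with or without rat, hamster or mouse liver S9. Preincubated 20 min at 37° C (or plate incorporation), plated in agar, incubated usually two days. Revertant colonies counted against negative controls.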
In general terms: The Ames test uses bacterial strains that need an amino acid and regain growth without it when mutated back.

Results filed as inconclusive are left out. Activity calls are given as the source filed them. No rule for the calls is given here.

In the case of `NC1NC=CS1` (centres undefined), the outcome is “active; positive”.

On to `CC(C)(C)OO`, for which the outcome is “active; positive”.

Consider `C=CCC`, for which the outcome was “inactive; negative”.

Take `CC(=O)OCCC(C)C`: the outcome is “inactive; negative”.

In the case of `CNC=O`, the outcome was “inactive; negative”.

As to `CC(=O)O[C@H](CC(=O)[O-])C[N+](C)(C)C`, the outcome was “inactive; negative”.

As to `CCCC[N+]1(C)CCCC1`, the outcome was “inactive; negative”.

Consider `COc1ccc(N)c(C)c1`, for which the outcome was “active; positive”.

For the compound `C=C1C/C(=C/C)C(=O)O[C@@H]2CCN3CC=C(COC(=O)[C@@]1(O)CO)[C@H]23`, the outcome is “active; positive”.

Take `Cc1cc2nc3c(=O)[nH]c(=O)nc-3n(C[C@H](O)[C@H](O)[C@H](O)CO)c2cc1C`: the outcome is “inactive; negative”.

Take `ClC=CC[N+]12CN3CN(CN(C3)C1)C2`: the outcome is “active; weakly positive”.

In the case of `Nc1ccc(Cc2ccc(N)cc2)cc1`, the outcome was “active; positive”.

`Nc1ccc(NCCO)c([N+](=O)[O-])c1`: the outcome is “active; positive”.

In the case of `CCN(CC)CCO`, the outcome is “inactive; negative”.

Take `Cc1cc(-c2cc(C)c(N)c(C)c2)cc(C)c1N`: the outcome is “inactive; negative”.

Take `C=CCNC(=S)NCC=C`: the outcome is “inactive; negative”.

Turning to `COC(=O)C1CCC(C)CC1` (centres undefined), the outcome is “inactive; negative”.

Consider `Cc1cc(C(=O)O)ccc1[N+](=O)[O-]`, for which the outcome was “active; positive”.

With `O=c1oc2c(O)c(O)cc3c(=O)oc4c(O)c(O)cc1c4c23`, the outcome is “inactive; negative”.

As to `CCNC(=S)NCC`, the outcome was “inactive; negative”.

Regarding `ClC1=C(Cl)[C@]2(Cl)[C@@H]3[C@@H]4C[C@@H]([C@H]5O[C@@H]45)[C@@H]3[C@@]1(Cl)C2(Cl)Cl`, the outcome was “inactive; negative”.

On to `c1ccc(N=NNc2ccccc2)cc1`, for which the outcome was “active; positive”.

Regarding `O=C(O)C=Cc1ccc(O)c(O)c1`, the outcome was “inactive; negative”.

As for `CC(=O)OC(C(=O)c1ccccc1)c1ccccc1` (centres undefined), the outcome was “inactive; negative”.

Regarding `ClC(Cl)(Cl)c1ccccc1`, the outcome was “active; positive”.

As for `N#CC(Br)Br`, the outcome is “active; positive”.

As for `Nc1ccc([As](=O)(O)O)cc1`, the outcome was “inactive; negative”.

With `C=CC(=O)NCCNC(=O)C=C`, the outcome is “active; positive”.

`Cn1cnc([N+](=O)[O-])c1Sc1ncnc2nc[nH]c12`: the outcome was “active; positive”.

For `O=c1cc(O)nc[nH]1`, the outcome is “inactive; negative”.

With `Cc1cccc(C(=O)O)c1`, the outcome is “inactive; negative”.

Regarding `COc1ccc(C(=O)c2ccccc2O)c(O)c1`, the outcome is “active; positive”.

Turning to `[N-]=[N+]=[N-]`, the outcome is “active; positive”.

In the case of `C=CC=O`, the outcome is “active; weakly positive”.

Regarding `FC(F)(F)c1ccccc1Cl`, the outcome was “inactive; negative”.

As to `CCN(CC)C(=S)S`, the outcome is “inactive; negative”.

For the compound `O=[N+]([O-])c1ccccc1CCl`, the outcome was “active; positive”.

As for `CN1CCC[C@H]1c1cccnc1`, the outcome is “inactive; negative”.

Regarding `CC(=O)OCc1ccco1`, the outcome was “active; positive”.

`O=Nc1ccc(O)cc1`: the outcome is “active; weakly positive”.

For `Cc1cccc(O)c1C`, the outcome was “inactive; negative”.

`ClCC(Cl)CCl`: the outcome was “active; positive”.

As for `O=S(=O)([O-])[O-].[O]=[V+2]`, the outcome was “inactive; negative”.

Take `CCCCCCCCn1sccc1=O`: the outcome is “inactive; negative”.

Regarding `c1ccc2c(c1)CCNC2`, the outcome is “inactive; negative”.

As for `COC(=O)NC(=S)Nc1ccccc1NC(=S)NC(=O)OC`, the outcome was “active; positive”.

In the case of `C1COCCN1`, the outcome was “inactive; negative”.

For `C[Si](C)(C)N[Si](C)(C)C`, the outcome was “inactive; negative”.

For the compound `Nc1ccc(-c2ccc(N)c(Cl)c2)cc1Cl`, the outcome was “active; positive”.

On to `CC(C)Cc1nccs1`, for which the outcome is “active; positive”.

On to `NC(=O)/C(=C\c1ccc([N+](=O)[O-])o1)c1ccco1`, for which the outcome is “active; positive”.

As for `CC(=O)OCCOCCOCCOC(C)=O`, the outcome is “active; positive”.

Consider `Brc1c(Br)c(Br)c(Br)c(Br)c1Br`, for which the outcome is “inactive; negative”.

On to `O=C(c1ccccc1)C(O)c1ccccc1` (centres undefined), for which the outcome was “active; weakly positive”.

With `Clc1ccc(C(c2ccc(Cl)cc2)C(Cl)Cl)cc1`, the outcome is “inactive; negative”.

`Cc1ccc(N=Nc2c(O)c(S(=O)(=O)O)cc3ccc(S(=O)(=O)O)cc23)c(C)c1`: the outcome was “active; weakly positive”.

Take `NCCCCCCN`: the outcome is “inactive; negative”.

On to `NC(=O)N=NC(N)=O`, for which the outcome is “active; positive”.

For the compound `Nc1ccc(C(=O)O)cc1`, the outcome is “inactive; negative”.

As for `CCC(C)Nc1ccc(NC(C)CC)cc1` (centres undefined), the outcome was “inactive; negative”.

Turning to `Cc1ccc(C)c(N)c1`, the outcome is “active; positive”.

Take `COc1ccc([N+](=O)[O-])cc1N=Nc1c(O)c(C(=O)Nc2cccc([N+](=O)[O-])c2)cc2ccccc12`: the outcome is “active; positive”.

For the compound `CC(=O)Nc1ccccc1N`, the outcome was “active; positive”.

For `CCC(Br)(CC)C(=O)NC(N)=O`, the outcome was “inactive; negative”.

Take `CCCCNCCCC`: the outcome is “inactive; negative”.

For the compound `NCc1ccc(CN)cc1`, the outcome is “inactive; negative”.

As to `ClC/C=C/CCl`, the outcome is “active; positive”.

For `C1CCCNCC1`, the outcome was “inactive; negative”.

In the case of `Cc1ccc(O)c(C)c1`, the outcome is “active; weakly positive”.

With `OC1CCCCC1`, the outcome is “inactive; negative”.

In the case of `CC/C=C\C/C=C\C/C=C\CCCCCCCC(=O)O`, the outcome is “active; weakly positive”.

Turning to `COc1ccc([N+](=O)[O-])cc1N`, the outcome was “active; positive”.

With `OCC1CCC(CO)CC1` (centres undefined), the outcome is “inactive; negative”.

As for `O=C1OC(c2ccc(O)cc2)(c2ccc(OC3O[C@H](C(=O)O)[C@@H](O)[C@H](O)[C@H]3O)cc2)c2ccccc21` (some centres undefined), the outcome was “inactive; negative”.

For the compound `Cc1ccc(N)cc1[N+](=O)[O-]`, the outcome was “active; positive”.

`Cc1cccc(N)c1`: the outcome is “inactive; negative”.

In the case of `CCN(CC)c1ccc(N)cc1`, the outcome is “active; positive”.

Regarding `O=S1(=O)CC=CC1`, the outcome is “inactive; negative”.

Regarding `CN(C)CCCCl`, the outcome was “active; positive”.

`O=C(O)CCCCC1CCSS1` (centres undefined): the outcome is “inactive; negative”.

Turning to `C=CC#N`, the outcome is “active; positive”.

Regarding `C=CCSSCCC`, the outcome is “inactive; negative”.

Turning to `Cc1ccc(N)cc1O`, the outcome was “active; positive”.

For the compound `CCC(C)c1ccccc1O` (centres undefined), the outcome was “inactive; negative”.

As to `CCCCCCCCC(=O)O`, the outcome is “inactive; negative”.

In the case of `C=CCOC(=O)c1ccccc1C(=O)OCC=C`, the outcome was “inactive; negative”.

As to `Oc1ccc2cc(SSc3ccc4cc(O)ccc4c3)ccc2c1`, the outcome is “inactive; negative”.

As to `C[Si](C)(C)O[Si](C)(O[Si](C)(C)C)O[Si](C)(C)C`, the outcome was “inactive; negative”.

Regarding `OC(c1ccc(Cl)cc1)(c1ccc(Cl)cc1)C(Cl)(Cl)Cl`, the outcome is “inactive; negative”.

Consider `O=C(O)c1ccccc1[N+](=O)[O-]`, for which the outcome was “active; positive”.

Turning to `c1ccc2c(c1)ccc1ccccc12`, the outcome is “active; weakly positive”.

On to `C=CC(=O)OCCCCCCOC(=O)C=C`, for which the outcome is “inactive; negative”.

Turning to `CCCCOC(=O)COc1ccc(Cl)cc1Cl`, the outcome was “inactive; negative”.

Regarding `CCCCC(CC)COCCCN` (centres undefined), the outcome is “inactive; negative”.

Regarding `CCCCCCc1ccc(O)cc1O`, the outcome was “inactive; negative”.

Turning to `CCN`, the outcome is “inactive; negative”.

For `C`, the outcome was “inactive; negative”.

For the compound `CC(C)[N+](=O)[O-]`, the outcome was “active; positive”.

As for `COc1ccc(CCC(=O)c2c(O)cc(O[C@@H]3O[C@H](CO)[C@@H](O)[C@H](O)[C@H]3O[C@@H]3O[C@@H](C)[C@H](O)[C@@H](O)[C@H]3O)cc2O)cc1O`, the outcome was “inactive; negative”.

Regarding `Nc1cc(Cl)cc(S(=O)(=O)O)c1O`, the outcome was “inactive; negative”.

Regarding `CCn1cc[n+](C)c1`, the outcome is “inactive; negative”.

For `O=c1[nH]cnc2[nH]ncc12`, the outcome was “active; weakly positive”.

Regarding `Cc1ccccc1C(OCCN(C)C)c1ccccc1` (centres undefined), the outcome was “inactive; negative”.

On to `Nc1ccc(Oc2ccc(N)cc2)cc1`, for which the outcome is “active; positive”.

On to `C=CCCl`, for which the outcome is “active; positive”.

With `OCCO`, the outcome is “inactive; negative”.

As to `COc1c(Cl)c(Cl)c(Cl)c(Cl)c1Cl`, the outcome is “active; positive”.

Consider `Nc1nc2ncc(CNc3ccc(C(=O)N[C@@H](CCC(=O)O)C(=O)O)cc3)nc2c(=O)[nH]1`, for which the outcome is “inactive; negative”.

As for `Cc1ccc(O)cc1`, the outcome is “inactive; negative”.

`[CH3][Sn]([CH3])([Cl])[Cl]`: the outcome is “inactive; negative”.

On to `O=[N+]([O-])C(Br)(CO)CO`, for which the outcome is “inactive; negative”.

As to `CCC(=O)O`, the outcome was “inactive; negative”.

Consider `CCOP(=S)(OCC)Oc1nc(Cl)c(Cl)cc1Cl`, for which the outcome was “inactive; negative”.

Take `CCCCCCC(=O)OCC`: the outcome was “inactive; negative”.
